How the values were obtained:
Conditions in all cases: binder
AurA = target: T1, AurA (Homo sapiens, UniProt O14965)
T1 sequence (O14965 1-403): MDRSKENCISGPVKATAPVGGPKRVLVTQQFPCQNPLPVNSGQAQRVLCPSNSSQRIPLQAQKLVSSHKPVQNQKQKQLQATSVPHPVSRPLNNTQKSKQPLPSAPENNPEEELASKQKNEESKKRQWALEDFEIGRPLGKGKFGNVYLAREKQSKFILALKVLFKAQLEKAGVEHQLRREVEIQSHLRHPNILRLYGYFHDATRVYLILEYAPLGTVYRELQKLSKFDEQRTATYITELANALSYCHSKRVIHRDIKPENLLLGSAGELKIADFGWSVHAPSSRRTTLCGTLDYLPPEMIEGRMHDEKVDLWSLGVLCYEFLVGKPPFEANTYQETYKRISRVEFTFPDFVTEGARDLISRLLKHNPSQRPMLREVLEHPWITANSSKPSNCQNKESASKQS

CK2a2 = CK2a2 (Homo sapiens, UniProt P19784)
CaMK2b = CaMK2b (Homo sapiens, UniProt Q13554)
DAPK3 = DAPK3 (Homo sapiens, UniProt O43293)
FGFR1 = FGFR1 (Homo sapiens, UniProt P11362)
MAP2K7 = target: T2, MAP2K7 (Homo sapiens, UniProt O14733)
T2 sequence (O14733 1-419): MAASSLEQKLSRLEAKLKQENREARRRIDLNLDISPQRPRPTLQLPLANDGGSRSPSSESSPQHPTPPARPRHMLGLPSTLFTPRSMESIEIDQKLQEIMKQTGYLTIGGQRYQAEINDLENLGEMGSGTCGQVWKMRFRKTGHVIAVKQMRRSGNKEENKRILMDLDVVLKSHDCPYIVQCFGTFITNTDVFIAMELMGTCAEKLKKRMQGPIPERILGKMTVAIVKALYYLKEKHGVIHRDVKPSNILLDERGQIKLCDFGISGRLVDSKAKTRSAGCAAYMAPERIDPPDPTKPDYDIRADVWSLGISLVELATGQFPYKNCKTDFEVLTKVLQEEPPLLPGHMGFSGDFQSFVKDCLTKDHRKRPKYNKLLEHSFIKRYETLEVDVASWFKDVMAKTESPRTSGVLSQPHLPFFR

ULK3 = target: T3, ULK3 (Homo sapiens, UniProt Q6PHR2)
T3 sequence (Q6PHR2 1-472): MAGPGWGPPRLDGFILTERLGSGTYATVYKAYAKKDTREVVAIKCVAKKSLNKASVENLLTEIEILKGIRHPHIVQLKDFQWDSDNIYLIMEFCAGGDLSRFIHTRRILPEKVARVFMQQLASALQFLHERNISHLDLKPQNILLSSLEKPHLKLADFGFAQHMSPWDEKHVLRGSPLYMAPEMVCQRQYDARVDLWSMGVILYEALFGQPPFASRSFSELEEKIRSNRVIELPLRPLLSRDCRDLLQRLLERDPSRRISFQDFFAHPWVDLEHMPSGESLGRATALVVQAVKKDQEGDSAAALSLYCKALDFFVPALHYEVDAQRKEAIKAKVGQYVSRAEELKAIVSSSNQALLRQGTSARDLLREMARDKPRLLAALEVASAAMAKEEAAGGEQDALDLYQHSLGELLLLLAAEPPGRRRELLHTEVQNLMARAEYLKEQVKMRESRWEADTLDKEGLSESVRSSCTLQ

CaMK2b, sequence (Q13554 whole entry): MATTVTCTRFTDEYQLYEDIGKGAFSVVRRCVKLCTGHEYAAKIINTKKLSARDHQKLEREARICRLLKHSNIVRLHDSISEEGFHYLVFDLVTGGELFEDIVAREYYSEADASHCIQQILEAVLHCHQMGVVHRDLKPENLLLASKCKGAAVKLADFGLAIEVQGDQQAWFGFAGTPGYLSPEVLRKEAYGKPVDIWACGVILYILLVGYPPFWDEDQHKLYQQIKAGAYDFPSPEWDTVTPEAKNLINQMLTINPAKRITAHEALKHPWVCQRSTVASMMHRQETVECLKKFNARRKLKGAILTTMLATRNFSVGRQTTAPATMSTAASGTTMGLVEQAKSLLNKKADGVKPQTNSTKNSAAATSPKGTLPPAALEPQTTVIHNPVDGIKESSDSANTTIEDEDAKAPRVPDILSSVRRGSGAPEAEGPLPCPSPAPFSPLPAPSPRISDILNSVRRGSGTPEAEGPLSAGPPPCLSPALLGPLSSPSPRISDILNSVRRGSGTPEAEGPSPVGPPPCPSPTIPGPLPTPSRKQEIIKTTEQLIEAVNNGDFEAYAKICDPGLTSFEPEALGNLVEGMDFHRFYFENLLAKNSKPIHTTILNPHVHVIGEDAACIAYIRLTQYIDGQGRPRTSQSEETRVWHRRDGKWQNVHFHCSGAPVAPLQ
CK2a2, sequence (P19784 whole entry): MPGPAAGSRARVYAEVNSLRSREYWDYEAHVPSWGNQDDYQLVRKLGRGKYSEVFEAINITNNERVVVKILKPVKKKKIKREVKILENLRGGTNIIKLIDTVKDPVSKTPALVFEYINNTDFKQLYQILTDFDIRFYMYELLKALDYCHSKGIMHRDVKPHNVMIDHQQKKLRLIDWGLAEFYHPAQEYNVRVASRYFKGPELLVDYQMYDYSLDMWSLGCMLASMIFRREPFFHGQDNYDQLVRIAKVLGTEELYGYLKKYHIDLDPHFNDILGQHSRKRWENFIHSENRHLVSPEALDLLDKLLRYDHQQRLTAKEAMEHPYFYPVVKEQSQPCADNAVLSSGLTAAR
FGFR1, sequence (P11362 whole entry): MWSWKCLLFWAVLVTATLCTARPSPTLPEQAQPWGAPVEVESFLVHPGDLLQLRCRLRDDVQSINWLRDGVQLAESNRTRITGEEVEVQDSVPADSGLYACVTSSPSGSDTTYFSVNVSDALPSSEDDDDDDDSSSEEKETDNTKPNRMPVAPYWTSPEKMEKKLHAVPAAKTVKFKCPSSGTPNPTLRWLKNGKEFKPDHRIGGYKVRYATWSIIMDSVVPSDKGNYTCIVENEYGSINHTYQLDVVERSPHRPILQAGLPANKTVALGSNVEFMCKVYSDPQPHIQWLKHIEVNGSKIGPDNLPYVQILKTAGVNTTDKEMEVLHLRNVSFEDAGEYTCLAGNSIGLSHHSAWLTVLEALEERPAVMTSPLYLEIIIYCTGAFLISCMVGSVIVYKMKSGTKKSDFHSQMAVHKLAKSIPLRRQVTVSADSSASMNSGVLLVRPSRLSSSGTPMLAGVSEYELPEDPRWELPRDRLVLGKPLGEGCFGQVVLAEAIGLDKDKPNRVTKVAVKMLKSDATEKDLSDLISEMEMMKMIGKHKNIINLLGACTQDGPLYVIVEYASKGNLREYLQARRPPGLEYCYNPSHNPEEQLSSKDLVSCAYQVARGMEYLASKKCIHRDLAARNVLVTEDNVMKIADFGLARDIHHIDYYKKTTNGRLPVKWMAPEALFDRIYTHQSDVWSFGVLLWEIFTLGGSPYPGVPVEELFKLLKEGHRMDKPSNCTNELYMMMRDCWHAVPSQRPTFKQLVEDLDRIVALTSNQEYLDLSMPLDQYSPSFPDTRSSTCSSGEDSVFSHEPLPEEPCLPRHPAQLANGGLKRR
DAPK3, sequence (O43293 whole entry): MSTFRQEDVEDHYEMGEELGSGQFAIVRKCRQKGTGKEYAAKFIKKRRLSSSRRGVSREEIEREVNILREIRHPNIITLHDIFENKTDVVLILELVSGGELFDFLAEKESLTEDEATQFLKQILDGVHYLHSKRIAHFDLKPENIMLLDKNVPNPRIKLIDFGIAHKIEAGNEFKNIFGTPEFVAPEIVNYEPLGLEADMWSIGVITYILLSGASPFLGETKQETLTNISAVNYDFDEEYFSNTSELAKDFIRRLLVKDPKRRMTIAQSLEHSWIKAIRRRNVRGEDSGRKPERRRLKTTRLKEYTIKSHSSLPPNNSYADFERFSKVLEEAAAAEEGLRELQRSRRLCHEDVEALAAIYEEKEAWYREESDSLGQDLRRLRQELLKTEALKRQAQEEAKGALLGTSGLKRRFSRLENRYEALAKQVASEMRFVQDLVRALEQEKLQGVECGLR

SMILES: Cc1cccc(-c2ccc(-c3cc4cnc(Nc5ccc(F)c(CO)c5)nc4n(CCCCN)c3=O)c(Cl)c2)n1 [compound 33, 8-(4-Aminobutyl)-6-(2-chloro-4-(6-methylpyridin-2-yl)phenyl)-2-((4-fluoro-3-(hydroxymethyl)phenyl)amino)pyrido[2,3-d]pyrimidin-7(8H)-one]
- dTm 33 (AurA): 2.8 °C
- dTm 33 (CK2a2): -1.2 °C
- dTm 33 (CaMK2b): -0.2 °C
- dTm 33 (DAPK3): 1.9 °C
- dTm 33 (FGFR1): 2.0 °C
- dTm 33 (MAP2K7): 7.7 °C
- dTm 33 (ULK3): 13.9 °C

SMILES: COc1ccc(O)c(Nc2ncc3cc(-c4ccc(-c5cccc(C)n5)cc4Cl)c(=O)n(CCCCN)c3n2)c1 [compound 34, 8-(4-Aminobutyl)-6-(2-chloro-4-(6-methylpyridin-2-yl)phenyl)-2-((2-hydroxy-5-methoxy-phenyl)amino)pyrido[2,3-d]pyrimidin-7(8H)-one]
- dTm 34 (AurA): 3.4 °C
- dTm 34 (CK2a2): 0.1 °C
- dTm 34 (CaMK2b): -0.8 °C
- dTm 34 (DAPK3): 1.5 °C
- dTm 34 (FGFR1): 0.9 °C
- dTm 34 (MAP2K7): 1.3 °C
- dTm 34 (ULK3): 8.3 °C

SMILES: COc1cc(N2CCOCC2)ccc1Nc1ncc2cc(-c3ccc(-c4cccc(C)n4)cc3Cl)c(=O)n(CCCCN)c2n1 [compound 35, 8-(4-Aminobutyl)-6-(2-chloro-4-(6-methylpyridin-2-yl)phenyl)-2-((2-methoxy-4-morpholino-phenyl)amino)pyrido[2,3-d]pyrimidin-7(8H)-one]
- dTm 35 (AurA): 8.6 °C
- dTm 35 (CK2a2): 0.1 °C
- dTm 35 (CaMK2b): -1.4 °C
- dTm 35 (DAPK3): 3.2 °C
- dTm 35 (FGFR1): 0.4 °C
- dTm 35 (MAP2K7): 2.0 °C
- dTm 35 (ULK3): 12.7 °C

SMILES: COc1cc(N2CCN(C)CC2)ccc1Nc1ncc2cc(-c3ccc(-c4cccc(C)n4)cc3Cl)c(=O)n(CCCCN)c2n1 [compound 36, 8-(4-Aminobutyl)-6-(2-chloro-4-(6-methylpyridin-2-yl)phenyl)-2-((2-methoxy-4-(4-methylpiperazin-1-yl)phenyl)amino)pyrido[2,3-d]pyrimidin-7(8H)-one]
- dTm 36 (AurA): 5.1 °C
- dTm 36 (CK2a2): -0.5 °C
- dTm 36 (CaMK2b): -0.6 °C
- dTm 36 (DAPK3): 1.6 °C
- dTm 36 (FGFR1): 2.0 °C
- dTm 36 (MAP2K7): 0.0 °C
- dTm 36 (ULK3): 8.9 °C

Reference: publication doi:10.1101/2023.11.24.568596v1 (biorxiv, 2023)
